Measured values reported in publication PMC9116245, “New 1,2,3-triazole linked ciprofloxacin-chalcones induce DNA damage by inhibiting human topoisomerase I& II and tubulin polymerization” (Journal of Enzyme Inhibition and Medicinal Chemistry, 2022).

Columns and labels:
786-0 = assay: NCI one-dose screen; type: cell-based; conditions: Homo sapiens; 786-0, 10 µM; read-out: Growth Percent
Method in brief: (§1)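 Human cancer cell lines (59, nine subpanels) were exposed to compound at 10 µM only. Growth percent, NCI-60 standard method.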

A549/ATCC = assay: NCI one-dose screen; type: cell-based; conditions: Homo sapiens, read-out: Growth Percent
Method in brief: as §1

BT-549 = assay: NCI one-dose screen; type: cell-based; conditions: Homo sapiens; BT-549, 10 µM; read-out: Growth Percent
Method in brief: as §1

CCRF-CEM = assay: NCI one-dose screen; type: cell-based; conditions: Homo sapiens, read-out: Growth Percent
Method in brief: as §1

COLO 205 = assay: NCI one-dose screen; type: cell-based; conditions: Homo sapiens; COLO 205, 10 µM; read-out: Growth Percent
Method in brief: as §1

HCC-2998 = assay: NCI one-dose screen; type: cell-based; conditions: Homo sapiens; HCC-2998, 10 µM; read-out: Growth Percent
Method in brief: as §1

HCT-15 = assay: NCI one-dose screen; type: cell-based; conditions: Homo sapiens; HCT-15, 10 µM; read-out: Growth Percent
Method in brief: as §1

HS 578T = assay: NCI one-dose screen; type: cell-based; conditions: Homo sapiens, read-out: Growth Percent
Method in brief: as §1

IGROV1 = assay: NCI one-dose screen; type: cell-based; conditions: Homo sapiens, IGROV-1; IGROV1, 10 µM; read-out: Growth Percent
Method in brief: as §1

K-562 = assay: NCI one-dose screen; type: cell-based; conditions: Homo sapiens, K562; K-562, 10 µM; read-out: Growth Percent
Method in brief: as §1

M14 = assay: NCI one-dose screen; type: cell-based; conditions: Homo sapiens; M14, 10 µM; read-out: Growth Percent
Method in brief: as §1

MALME-3M = assay: NCI one-dose screen; type: cell-based; conditions: Homo sapiens, read-out: Growth Percent
Method in brief: as §1

MDA-MB-231/ATCC = assay: NCI one-dose screen; type: cell-based; conditions: Homo sapiens, read-out: Growth Percent
Method in brief: as §1

MDA-MB-435 = assay: NCI one-dose screen; type: cell-based; conditions: Homo sapiens; MDA-MB-435, 10 µM; read-out: Growth Percent
Method in brief: as §1

MDA-MB-468 = assay: NCI one-dose screen; type: cell-based; conditions: Homo sapiens; MDA-MB-468, 10 µM; read-out: Growth Percent
Method in brief: as §1

NCI-H226 = assay: NCI one-dose screen; type: cell-based; conditions: Homo sapiens; NCI-H226, 10 µM; read-out: Growth Percent
Method in brief: as §1

NCI-H23 = assay: NCI one-dose screen; type: cell-based; conditions: Homo sapiens; NCI-H23, 10 µM; read-out: Growth Percent
Method in brief: as §1

NCI-H460 = assay: NCI one-dose screen; type: cell-based; conditions: Homo sapiens; NCI-H460, 10 µM; read-out: Growth Percent
Method in brief: as §1

NCI-H522 = assay: NCI one-dose screen; type: cell-based; conditions: Homo sapiens; NCI-H522, 10 µM; read-out: Growth Percent
Method in brief: as §1

PC-3 = assay: NCI one-dose screen; type: cell-based; conditions: Homo sapiens; PC-3, 10 µM; read-out: Growth Percent
Method in brief: as §1

SF-268 = assay: NCI one-dose screen; type: cell-based; conditions: Homo sapiens; SF-268, 10 µM; read-out: Growth Percent
Method in brief: as §1

SK-MEL-28 = assay: NCI one-dose screen; type: cell-based; conditions: Homo sapiens; SK-MEL-28, 10 µM; read-out: Growth Percent
Method in brief: as §1

T-47D = assay: NCI one-dose screen; type: cell-based; conditions: Homo sapiens, T47D, read-out: Growth Percent
Method in brief: as §1

U251 = assay: NCI one-dose screen; type: cell-based; conditions: Homo sapiens, U-251; U251, 10 µM; read-out: Growth Percent
Method in brief: as §1

UACC-62 = assay: NCI one-dose screen; type: cell-based; conditions: Homo sapiens; UACC-62, 10 µM; read-out: Growth Percent
Method in brief: as §1

UO-31 = assay: NCI one-dose screen; type: cell-based; conditions: Homo sapiens; UO-31, 10 µM; read-out: Growth Percent
Method in brief: as §1

[1] = test system: 59 human cancer cell lines; assay: NCI one-dose screen, whole panel; type: cell-based; conditions: Homo sapiens, mean over the panel, read-out: Mean Growth Percent
Experimental: For screening of anticancer properties, all the developed compounds were chosen by the (NCI) for in-vitro antitumor evaluation. The assay was carried out using 59 human cancer cell lines obtained from nine tumour subpanels (breast, ovarian, melanoma, leukaemia, renal, CNS, lung, prostate, and colon cancer cell lines). Compounds were assessed at a 10 µM concentration. […] Also, hybrids 4a, 4b, 4e, 4i and 4j produced significant anti-proliferative effect in several cancer cells, particularly in leukaemia (RPMI-8226) and colon (HCT116) cells with growth percent of 47.87, −14.59, −24.56, −24.42, −15.84, −9.74, −53.36, −10.26, −31.29, and −39.51%, respectively.
The method description for NCI anticancer screening is provided in detail in the standard NCI-60 testing protocol.

With `O=C(/C=C/c1ccc(Cl)cc1)c1ccc(-n2cc(CN3CCN(c4cc5c(cc4F)c(=O)c(C(=O)O)cn5C4CC4)CC3)nn2)cc1` [Compound 4c, (E)-7-(4-((1-(4-(3-(4-chlorophenyl)acryloyl)phenyl)-1H-1,2,3-triazol-4-yl)methyl)piperazin-1-yl)-1-cyclopropyl-6-fluoro-4-oxo-1,4-dihydroquinoline-3-carboxylic acid] the activity at 10 µM (786-0) was 54.2%, the activity at 10 µM (A549/ATCC) was 88.9% and the activity at 10 µM (BT-549) was 76.7%. For the same compound, the activity at 10 µM (CCRF-CEM) was 64.9%, the activity at 10 µM (COLO 205) was 108% and the activity at 10 µM (HCC-2998) was 88.3%. For the same compound, the activity at 10 µM (HCT-15) was 91.6%, the activity at 10 µM (HS 578T) was 67.4% and the activity at 10 µM (IGROV1) was 84%. For the same compound, the activity at 10 µM (K-562) was 56%, the activity at 10 µM (M14) was 84.4% and the activity at 10 µM (MALME-3M) was 91.2%. The activity at 10 µM (MDA-MB-231/ATCC) was 89.4%, the activity at 10 µM (MDA-MB-435) was 79.5% and the activity at 10 µM (MDA-MB-468) was 66%. For the same compound, the activity at 10 µM (NCI-H226) was 73%, the activity at 10 µM (NCI-H23) was 79.7% and the activity at 10 µM (NCI-H460) was 76.1%. For the same compound, the activity at 10 µM (NCI-H522) was 80.1%, the activity at 10 µM (PC-3) was 79.3% and the activity at 10 µM (SF-268) was 70.4%. It also gave an activity at 10 µM (SK-MEL-28) of 88.2%, an activity at 10 µM (T-47D) of 92.9% and an activity at 10 µM (U251) of 42.1%. For the same compound, the activity at 10 µM (UACC-62) was 73.8%, the activity at 10 µM (UO-31) was 62.5% and the activity at 10 µM [1] was 73.9%. For the same compound, the melting point was 257 to 259 °C.

`Cc1ccc(/C=C/C(=O)c2ccc(-n3cc(CN4CCN(c5cc6c(cc5F)c(=O)c(C(=O)O)cn6C5CC5)CC4)nn3)cc2)cc1` [Compound 4f, (E)-1-cyclopropyl-6-fluoro-4-oxo-7-(4-((1-(4-(3-(p-tolyl)acryloyl)phenyl)-1H-1,2,3-triazol-4-yl)methyl)piperazin-1-yl)-1,4-dihydroquinoline-3-carboxylic acid] gave an activity at 10 µM (786-0) of 76.7%, an activity at 10 µM (A549/ATCC) of 87.3% and an activity at 10 µM (BT-549) of 81.3%. The activity at 10 µM (CCRF-CEM) was 56.3%, the activity at 10 µM (COLO 205) was 107% and the activity at 10 µM (HCC-2998) was 98.5%. It also gave an activity at 10 µM (HCT-15) of 95%, an activity at 10 µM (HS 578T) of 83.6% and an activity at 10 µM (IGROV1) of 74.2%. It also gave an activity at 10 µM (K-562) of 51.5%, an activity at 10 µM (M14) of 87% and an activity at 10 µM (MALME-3M) of 102%. The activity at 10 µM (MDA-MB-231/ATCC) was 80.1%, the activity at 10 µM (MDA-MB-435) was 86.6% and the activity at 10 µM (MDA-MB-468) was 92.2%. The activity at 10 µM (NCI-H226) was 84.5%, the activity at 10 µM (NCI-H23) was 85.4% and the activity at 10 µM (NCI-H460) was 85.8%. The activity at 10 µM (NCI-H522) was 78.3%, the activity at 10 µM (PC-3) was 82% and the activity at 10 µM (SF-268) was 72.6%. For the same compound, the activity at 10 µM (SK-MEL-28) was 107%, the activity at 10 µM (T-47D) was 80% and the activity at 10 µM (U251) was 71.2%. It also gave an activity at 10 µM (UACC-62) of 83%, an activity at 10 µM (UO-31) of 65.7% and an activity at 10 µM [1] of 80.3%. It also gave a melting point of 259 to 261 °C.

For `COc1ccc(/C=C/C(=O)c2ccc(-n3cc(CN4CCN(c5cc6c(cc5F)c(=O)c(C(=O)O)cn6C5CC5)CC4)nn3)cc2)cc1` [Compound 4g, (E)-1-Cyclopropyl-6-fluoro-7-(4-((1-(4-(3-(4-methoxyphenyl)acryloyl)phenyl)-1H-1,2,3-triazol-4-yl)methyl)piperazin-1-yl)-4-oxo-1,4-dihydroquinoline-3-carboxylic acid], the activity at 10 µM (786-0) was 78.1%, the activity at 10 µM (A549/ATCC) was 89% and the activity at 10 µM (BT-549) was 90%. For the same compound, the activity at 10 µM (CCRF-CEM) was 74.6%, the activity at 10 µM (COLO 205) was 97.1% and the activity at 10 µM (HCC-2998) was 90.7%. For the same compound, the activity at 10 µM (HCT-15) was 95.8%, the activity at 10 µM (HS 578T) was 65.3% and the activity at 10 µM (IGROV1) was 59%. It also gave an activity at 10 µM (K-562) of 67.5%, an activity at 10 µM (M14) of 88.7% and an activity at 10 µM (MALME-3M) of 84.8%. For the same compound, the activity at 10 µM (MDA-MB-231/ATCC) was 88.1%, the activity at 10 µM (MDA-MB-435) was 82.2% and the activity at 10 µM (MDA-MB-468) was 74.4%. It also gave an activity at 10 µM (NCI-H226) of 76.3%, an activity at 10 µM (NCI-H23) of 85.4% and an activity at 10 µM (NCI-H460) of 82.2%. The activity at 10 µM (NCI-H522) was 79.1%, the activity at 10 µM (PC-3) was 89% and the activity at 10 µM (SF-268) was 77.3%. The activity at 10 µM (SK-MEL-28) was 85.3%, the activity at 10 µM (T-47D) was 93.4% and the activity at 10 µM (U251) was 68.6%. For the same compound, the activity at 10 µM (UACC-62) was 74.6%, the activity at 10 µM (UO-31) was 65.1% and the activity at 10 µM [1] was 78.8%. The melting point was 254 to 257 °C.

Work on `CN(C)c1ccc(/C=C/C(=O)c2ccc(-n3cc(CN4CCN(c5cc6c(cc5F)c(=O)c(C(=O)O)cn6C5CC5)CC4)nn3)cc2)cc1` [Compound 4h, (E)-1-cyclopropyl-7–(4-((1–(4-(3-(4-(dimethylamino)phenyl)acryloyl)phenyl)-1H-1,2,3-triazol-4-yl)methyl)piperazin-1-yl)-6-fluoro-4-oxo-1,4-dihydroquinoline-3-carboxylic acid] yielded an activity at 10 µM (786-0) of 65%, an activity at 10 µM (A549/ATCC) of 93.5% and an activity at 10 µM (BT-549) of 73.7%. It also gave an activity at 10 µM (CCRF-CEM) of 84.3%, an activity at 10 µM (COLO 205) of 101% and an activity at 10 µM (HCC-2998) of 92.4%. For the same compound, the activity at 10 µM (HCT-15) was 97.6%, the activity at 10 µM (HS 578T) was 80.5% and the activity at 10 µM (IGROV1) was 69.9%. The activity at 10 µM (K-562) was 86%, the activity at 10 µM (M14) was 87.4% and the activity at 10 µM (MALME-3M) was 96%. For the same compound, the activity at 10 µM (MDA-MB-231/ATCC) was 75.5%, the activity at 10 µM (MDA-MB-435) was 77.4% and the activity at 10 µM (MDA-MB-468) was 77.1%. It also gave an activity at 10 µM (NCI-H226) of 84.6%, an activity at 10 µM (NCI-H23) of 81.5% and an activity at 10 µM (NCI-H460) of 89.7%. For the same compound, the activity at 10 µM (NCI-H522) was 88.6%, the activity at 10 µM (PC-3) was 89.6% and the activity at 10 µM (SF-268) was 71.5%. It also gave an activity at 10 µM (SK-MEL-28) of 100%, an activity at 10 µM (T-47D) of 86.7% and an activity at 10 µM (U251) of 73%. For the same compound, the activity at 10 µM (UACC-62) was 77.6%, the activity at 10 µM (UO-31) was 61.9% and the activity at 10 µM [1] was 82%. It also gave a melting point of 177 to 179 °C.
